Experimental findings from patent US8552220B2, “Therapeutic agent for Alzheimer's disease” (Tokyo Institute of Technology, priority 2008, dated 2013) are described below.

As for `O=C(/C=C/c1ccc(O)cc1)CC(=O)/C=C/c1ccc(N2CCCCC2)cc1Br` [CU1090, (1E,6E)-1-[2-bromo-4-(piperidin-1-yl)phenyl]-7-(4-hydroxyphenyl)hepta-1,6-diene-3,5-dione], the melting point (commonly the temperature, or range, at which the solid turns liquid) fell in the range of 238 to 248 °C. The result for `CS(=O)(=O)Oc1ccccc1/C=C/C(=O)CC(=O)/C=C/c1ccc(O)cc1` [CU483, (1E,6E)-1-(4-hydroxyphenyl)-7-[2-(methylsulfonyloxy)phenyl]hepta-1,6-diene-3,5-dione] reads 163 to 167 °C.

Regarding `CN(C)c1ccc(/C=C/C(=O)CC(=O)/C=C/c2ccc(N(C)C)cc2[N+](=O)[O-])c([N+](=O)[O-])c1`, the melting point was in the range of 245 to 250 °C. The result for `CN(C)CCOc1ccc(/C=C/C(=O)CC(=O)/C=C/c2ccc(O)cc2)c(Cl)c1` [CU551, (1E,6E)-1-[2-chloro-4-(2-dimethylaminoethoxy)phenyl]-7-(4-hydroxyphenyl)hepta-1,6-diene-3,5-dione] reads 170 to 173 °C; that for `CCN(CC)c1ccc(/C=C/C(=O)CC(=O)/C=C/c2ccc(N(CC)CC)cc2OC(=O)c2ccccc2)c(OC(=O)c2ccccc2)c1` [CU427, (1E,6E)-1,7-bis(2-benzoyloxy-4-diethylaminophenyl)hepta-1,6-diene-3,5-dione], 192 to 196 °C; that for `CN(C)c1ccc(/C=C/C(=O)CC(=O)/C=C/c2cc(O)ccc2Br)c(Cl)c1` [CU609, (1E,6E)-1-(2-bromo-5-hydroxyphenyl)-7-(2-chloro-4-dimethylaminophenyl)hepta-1,6-diene-3,5-dione], 209 to 214 °C. `O=C(/C=C/c1ccc(O)cc1)CC(=O)/C=C/c1ccc(O)cc1Cl` [CU127, (1E,6E)-1-(2-chloro-4-hydroxyphenyl)-7-(4-hydroxyphenyl)hepta-1,6-diene-3,5-dione] registered a melting point of 131 to 138 °C.

With `COc1cc(O)ccc1/C=C/C(=O)CC(=O)/C=C/c1cc(OCc2ccccc2)ccc1[N+](=O)[O-]` [CU594, (1E,6E)-1-(5-benzyloxy-2-nitrophenyl)-7-(4-hydroxy-2-methoxyphenyl)hepta-1,6-diene-3,5-dione], the melting point was 183 to 186 °C. The result for `O=C(/C=C/c1cc(O)ccc1[N+](=O)[O-])CC(=O)/C=C/c1cc(O)ccc1[N+](=O)[O-]` reads 253 to 262 °C. The result for `COc1cc(O)ccc1/C=C/C(=O)CC(=O)/C=C/c1cc(O)ccc1[N+](=O)[O-]` [CU585, (1E,6E)-1-(4-hydroxy-2-methoxyphenyl)-7-(5-hydroxy-2-nitrophenyl)hepta-1,6-diene-3,5-dione] reads 119 to 123 °C; that for `COc1cc(O)ccc1/C=C/C(=O)CC(=O)/C=C/c1ccc(N(C)C)cc1Cl` [CU581, (1E,6E)-1-(2-chloro-4-dimethylaminophenyl)-7-(4-hydroxy-2-methoxyphenyl)hepta-1,6-diene-3,5-dione], 187 to 192 °C; that for `O=C(/C=C/c1cc(O)ccc1-c1ccccc1)CC(=O)CCc1ccc(O)cc1` [CU541, (E)-1-(4-hydroxybiphenyl-2-yl)-7-(4-hydroxyphenyl)hept-1-ene-3,5-dione], 148 to 158 °C.

In turn, `CCOc1ccccc1-c1ccc(O)cc1/C=C/C(=O)CC(=O)/C=C/c1ccc(O)cc1` [CU643, (1E,6E)-1-(2′-ethoxy-4-hydroxybiphenyl-2-yl)-7-(4-hydroxyphenyl)hepta-1,6-diene-3,5-dione] returned a melting point of 111 to 115 °C.

`COc1ccc(O)cc1/C=C/C(=O)CC(=O)/C=C/c1cc(O)ccc1Br` [CU608, (1E,6E)-1-(2-bromo-5-hydroxyphenyl)-7-(5-hydroxy-2-methoxyphenyl)hepta-1,6-diene-3,5-dione] displayed a melting point of 90 to 96 °C. `Cc1ccccc1-c1ccc(O)cc1/C=C/C(=O)CC(=O)/C=C/c1ccc(O)cc1` [CU642, (1E,6E)-1-(4-hydroxy-2′-methylbiphenyl-2-yl)-7-(4-hydroxyphenyl)hepta-1,6-diene-3,5-dione] had a melting point of 173 to 177 °C. Take `CN(C)c1ccc(/C=C/C(=O)CC(=O)/C=C/c2ccc3cc[nH]c3c2)c(Cl)c1` [CU584, (1E,6E)-1-(2-chloro-4-dimethylaminophenyl)-7-(1H-indol-6-yl)hepta-1,6-diene-3,5-dione]: the melting point fell in the range of 180 to 185 °C.

Molecule `COc1ccc(/C=C/C(=O)CC(=O)/C=C/c2cc(O)ccc2[N+](=O)[O-])cc1O` [CU133, (1E,6E)-1-(3-hydroxy-4-methoxyphenyl)-7-(5-hydroxy-2-nitrophenyl)hepta-1,6-diene-3,5-dione] had a melting point of 107 to 111 °C. The result for `CCOC(=O)Cn1cc(-c2ccccc2/C=C/C(=O)CC(=O)/C=C/c2ccc(O)cc2)nn1` [CU646, (1E,6E)-1-[2-(1-ethoxycarbonylmethyl-1H-1,2,3-triazol-4-yl)phenyl]-7-(4-hydroxyphenyl)hepta-1,6-diene-3,5-dione] reads 99 to 105 °C; that for `COc1cc(/C=C/C(=O)CC(=O)/C=C/c2cc(O)ccc2[N+](=O)[O-])ccc1O` [CU132, (1E,6E)-1-(4-hydroxy-3-methoxyphenyl)-7-(5-hydroxy-2-nitrophenyl)hepta-1,6-diene-3,5-dione], 147 to 152 °C; that for `COC(=O)c1ccccc1/C=C/C(=O)CC(=O)/C=C/c1ccc(O)cc1` [CU478, (1E,6E)-1-(4-hydroxyphenyl)-7-[2-(methoxycarbonyl)phenyl]hepta-1,6-diene-3,5-dione], 145 to 150 °C. The result for `O=C(/C=C/c1cc(O)ccc1Br)CC(=O)CCc1ccc(O)cc1` [CU549, (E)-1-(2-bromo-5-hydroxyphenyl)-7-(4-hydroxyphenyl)hept-1-ene-3,5-dione] reads 161 to 165 °C. The molecule `CN(C)c1ccc(/C=C/C(=O)CC(=O)CCc2ccc(O)cc2)c(C(F)(F)F)c1` [CU556, (E)-1-(4-dimethylamino-2-trifluoromethylphenyl)-7-(4-hydroxyphenyl)hept-1-ene-3,5-dione] gave a melting point of 110 to 114 °C. The result for `O=C(/C=C/c1ccc(O)cc1)CC(=O)/C=C/c1cc(OCc2c(F)cccc2Cl)ccc1[N+](=O)[O-]` [CU492, (1E,6E)-1-[5-(2-chloro-6-fluorobenzyloxy)-2-nitrophenyl]-7-(4-hydroxyphenyl)hepta-1,6-diene-3,5-dione] reads 180 to 183 °C; that for `COc1cc(O)ccc1/C=C/C(=O)CC(=O)/C=C/c1ccc(O)cc1Cl` [CU600, (1E,6E)-1-(2-chloro-4-hydroxyphenyl)-7-(4-hydroxy-2-methoxyphenyl)hepta-1,6-diene-3,5-dione], 206 to 211 °C; that for `O=C(/C=C/c1ccc(O)cc1)CC(=O)/C=C/c1ccc(Br)cc1F` [CU471, (1E,6E)-1-(4-bromo-2-fluorophenyl)-7-(4-hydroxyphenyl)hepta-1,6-diene-3,5-dione], 223 to 232 °C.

With `O=C(/C=C/c1ccc(O)cc1)CC(=O)/C=C/c1ccc(N2CCN(c3ccccc3)CC2)cc1Br` [CU1095, (1E,6E)-1-[2-bromo-4-(4-phenylpiperazin-1-yl)phenyl]-7-(4-hydroxyphenyl)hepta-1,6-diene-3,5-dione], the melting point is 195 to 204 °C. The result for `O=C(/C=C/c1cc(O)ccc1Br)CC(=O)/C=C/c1ccccc1C(F)(F)F` [CU615, (1E,6E)-1-(2-bromo-5-hydroxyphenyl)-7-(2-trifluoromethylphenyl)hepta-1,6-diene-3,5-dione] reads 66 to 70 °C; that for `O=C(/C=C/c1cc(O)ccc1-c1cccc2ccccc12)CC(=O)CCc1ccc(O)cc1` [CU542, (E)-1-[5-hydroxy-2-(naphthalen-1-yl)phenyl]-7-(4-hydroxyphenyl)hept-1-ene-3,5-dione], 138 to 142 °C. Take `[N-]=[N+]=Nc1ccccc1/C=C/C(=O)CC(=O)/C=C/c1ccc(O)cc1` [CU651, (1E,6E)-1-(2-azidophenyl)-7-(4-hydroxyphenyl)hepta-1,6-diene-3,5-dione]: the melting point fell in the range of 153 to 161 °C. The result for `O=C(/C=C/c1cc(O)ccc1Br)CC(=O)/C=C/c1cc(O)ccc1Br` [CU614, (1E,6E)-1,7-bis(2-bromo-5-hydroxyphenyl)hepta-1,6-diene-3,5-dione] reads 239 to 243 °C; that for `O=C(/C=C/c1ccc(O)cc1)CC(=O)/C=C/c1ccccc1-n1cncn1` [CU623, (1E,6E)-1-[2-(1H-1,2,4-triazol-1-yl)phenyl]-7-(4-hydroxyphenyl)hepta-1,6-diene-3,5-dione], 186 to 192 °C. Turning to `O=C(/C=C/c1ccc(O)cc1Cl)CC(=O)/C=C/c1ccc(O)cc1Cl` [CU362, (1E,6E)-1,7-bis(2-chloro-4-hydroxyphenyl)hepta-1,6-diene-3,5-dione], the melting point lay within 248 to 254 °C.

`COc1cc(O)ccc1/C=C/C(=O)CC(=O)/C=C/c1ccc(N(C)C)cc1[N+](=O)[O-]` [CU603, (1E,6E)-1-(4-dimethylamino-2-nitrophenyl)-7-(4-hydroxy-2-methoxyphenyl)hepta-1,6-diene-3,5-dione] displayed a melting point of 223 to 226 °C. As to `CN(C)c1ccc(/C=C/C(=O)CC(=O)/C=C/c2ccc(O)cc2)c([N+](=O)[O-])c1` [CU194, (1E,6E)-1-(4-dimethylamino-2-nitrophenyl)-7-(4-hydroxyphenyl)hepta-1,6-diene-3,5-dione], the melting point was 217 to 222 °C. For `O=C(/C=C/c1ccc(O)cc1)CC(=O)/C=C/c1cc(Cl)ccc1[N+](=O)[O-]` [CU465, (1E,6E)-1-(5-chloro-2-nitrophenyl)-7-(4-hydroxyphenyl)hepta-1,6-diene-3,5-dione], the melting point was 241 to 250 °C. The result for `CCOC(=O)Cn1nncc1-c1ccccc1/C=C/C(=O)CC(=O)/C=C/c1ccc(O)cc1` [CU647, (1E,6E)-1-[2-(1-ethoxycarbonylmethyl-1H-1,2,3-triazol-5-yl)phenyl]-7-(4-hydroxyphenyl)hepta-1,6-diene-3,5-dione] reads 169 to 174 °C; that for `O=C(/C=C/c1ccc(O)cc1)CC(=O)/C=C/c1ccccc1Cl` [CU624, (1E,6E)-1-(2-chlorophenyl)-7-(4-hydroxyphenyl)hepta-1,6-diene-3,5-dione], 158 to 161 °C; that for `O=C(/C=C/c1ccc(O)cc1)CC(=O)/C=C/c1cc(C(F)(F)F)ccc1F` [CU473, (1E,6E)-1-(2-fluoro-5-trifluoromethylphenyl)-7-(4-hydroxyphenyl)hepta-1,6-diene-3,5-dione], 168 to 174 °C.
